Measurements taken from patent publication US5318964A, “Hydroxamic derivatives and pharmaceutical compositions” (Hoffmann-La Roche Inc., priority 1992, dated 1994).

Target: T1, collagenase obtained from a culture of human synovial fibroblasts (Homo sapiens, UniProt P03956)
T1 construct: endogenous in cells; host or cells: human synovial fibroblasts in culture (conditioned medium)
T1 sequence (P03956 100-469): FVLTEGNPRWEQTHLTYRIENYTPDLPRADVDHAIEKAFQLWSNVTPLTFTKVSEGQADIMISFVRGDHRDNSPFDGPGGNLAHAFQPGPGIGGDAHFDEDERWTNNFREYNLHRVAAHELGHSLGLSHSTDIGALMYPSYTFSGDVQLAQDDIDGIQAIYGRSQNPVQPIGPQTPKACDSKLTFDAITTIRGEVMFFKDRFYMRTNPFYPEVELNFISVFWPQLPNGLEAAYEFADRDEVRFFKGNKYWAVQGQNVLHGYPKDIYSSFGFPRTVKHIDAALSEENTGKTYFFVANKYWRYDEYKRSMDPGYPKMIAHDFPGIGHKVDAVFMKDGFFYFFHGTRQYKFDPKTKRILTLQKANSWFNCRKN
Assay: in vitro collagenase inhibiting activity (14C-acetylated collagen type I from rat tail tendons as substrate, microtitre plate assay)
Assay type: biochemical
Details: trypsin-activated collagenase from human synovial fibroblasts; 14C-acetylated collagen type I (rat tail tendons) substrate; concentration reducing substrate cleavage and solubilization to 50% of enzyme alone
Experimental: As mentioned earlier, the compounds of formula I and their pharmaceutically acceptable salts are collagenase inhibitors. […] Collagenase activity was measured using ^14 C-acetylated collagen type I from rat tail tendons as the substrate and employing the microtitre plate assay method of Johnson-Wint, B, Anal. Biochem. (1980), 104, 175. The IC50 is that concentration of a compound or salt of the invention in the enzyme digestion which reduces substrate cleavage and solubilization to 50% of that achieved by the enzyme alone.
The results obtained in the foregoing test with representative compounds and salts of the invention are compiled in Table I hereinafter: […]

| SMILES | IC50 [nM] |
| --- | --- |
| CC(C)C[C@@H](C(=O)N1CCCCC1)C(Cn1c(=O)n(C)n(C)c1=O)C(=O)NO (single isomer, unassigned) [Compound D, 1-[2(R)-[1(R or S)-(Hydroxycarbamoyl)-2-(1,2-dimethyl-3,5-dioxo-1,2,4-triazolidin-4-yl)ethyl]-4-methylvaleryl]piperidine] | 15 |
| CNC(=O)[C@@H]1CCCNN1C(=O)[C@H](CC(C)C)C(CN1C(=O)c2ccccc2C1=O)C(=O)NO (single isomer, unassigned) [Compound F, Hexahydro-2-[2(R)-[1(R or S)-(hydroxycarbamoyl)-2-phthalimidoethyl]-4-methylvaleryl]-N-methyl-3(S)-pyridazinecarboxamide] | 1.2 |
| CC(C)C[C@@H](C(=O)N1CCSCC1)C(CN1C(=O)CN(C)C1=O)C(=O)NO (single isomer, unassigned) [Compound E, 4-[2(R)-[1(R or S)-(Hydroxycarbamoyl)-2-(3-methyl-2,5-dioxo-1-imidazolidinyl)ethyl]-4-methylvaleryl]tetrahydro-1,4-thiazine] | 7 |
| CC(C)C[C@@H](C(=O)N1CCOCC1)C(CN1C(=O)c2ccccc2C1=O)C(=O)NO (single isomer, unassigned) [Compound A, 4-[2(R)-[1(R or S)-(Hydroxycarbamoyl)-2-phthalimidoethyl]-4-methylvalery]morpholine] | 10 |
| CC(C)C[C@@H](C(=O)N1CCC(O)CC1)C(CN1C(=O)N(C)C(C)(C)C1=O)C(=O)NO (single isomer, unassigned) [Compound G, 1-[2(R)-[1(R or S)-(Hydroxycarbamoyl)-2-(3,4,4-trimethyl-2,5-dioxo-1-imidazolidinyl)ethyl]-4-methylvaleryl]-4-piperidinol] | 6.9 |
| CC(C)C[C@@H](C(=O)N1CCSCC1)C(CN1C(=O)c2ccccc2C1=O)C(=O)NO (single isomer, unassigned) [Compound B, 4-[2(R)-[1(R or S)-(Hydroxycarbamoyl)-2-phthalimidoethyl]-4-methylvaleryl]tetrahydro-1,4-thiazine] | 6 |
| CC(C)C[C@@H](C(=O)N1CCC(O)CC1)C(CN1C(=O)c2ccccc2C1=O)C(=O)NO (single isomer, unassigned) [Compound C, 1-[2(R)-[1(R or S)-(Hydroxycarbamoyl)-2-phthalimidoethyl]-4-methylvaleryl]-4-piperidinol] | 5 |
